In PubChem BioAssay (NCI):
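Exposure lasted 48 hours, with cells grown in 96-well plates and compounds tested at five concentrations. Here, GI50 denotes the concentration required for 50% inhibition of growth. Definition used: TGI = concentration required for complete inhibition of growth.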

Columns and labels:
Experiment in all cases: inhibition of tumour cell growth, NCI panel, 48 h
[1] = tested on: SF-539 CNS
[2] = tested on: MOLT-4 leukemia
[3] = tested on: RXF 393 renal
[4] = tested on: SK-MEL-5 melanoma
[5] = tested on: A498 renal
[6] = tested on: TK-10 renal
[7] = tested on: HOP-92 NSCLC
[8] = tested on: T-47D breast
[9] = tested on: KM12 colon
[10] = tested on: 786-0 renal
[11] = tested on: SK-OV-3 ovarian
[12] = tested on: NCI-H226 lung
[13] = tested on: OVCAR-3 ovarian
[14] = tested on: UACC-62 melanoma
[15] = tested on: U251 CNS
[16] = tested on: CCRF-CEM leukemia
[17] = tested on: EKVX NSCLC
[18] = tested on: OVCAR-5 ovarian
[19] = tested on: HOP-62 NSCLC
[20] = tested on: SF-268 CNS
[21] = tested on: SR leukemia
[22] = tested on: HCT-15 colon
[23] = tested on: UACC-257 melanoma
[24] = tested on: MDA-MB-435
[25] = tested on: IGROV1 ovarian
[26] = tested on: SNB-75 CNS
[27] = tested on: MALME-3M melanoma
[28] = tested on: SNB-19 CNS
[29] = tested on: NCI-H460 lung
[30] = tested on: CAKI-1 renal
[31] = tested on: BT-549 breast
[32] = tested on: PC-3 prostate
[33] = tested on: NCI-H23 lung
[34] = tested on: HCC-2998 colon
[35] = tested on: DU-145 prostate
[36] = tested on: NCI/ADR-RES ovarian
[37] = tested on: A549 NSCLC
[38] = tested on: M14 melanoma
[39] = tested on: LOX IMVI melanoma
[40] = tested on: OVCAR-8 ovarian
[41] = tested on: HS 578T breast
[42] = tested on: UO-31 renal
[43] = tested on: SK-MEL-2 melanoma
[44] = tested on: SN12C renal
[45] = tested on: HT29 colon
[46] = tested on: HL-60(TB) leukemia
[47] = tested on: SW-620 colon
[48] = tested on: RPMI-8226 leukemia
[49] = tested on: MDA-MB-231 breast
[50] = tested on: SK-MEL-28 melanoma
[51] = tested on: SF-295 CNS
[52] = tested on: COLO 205 colon
[53] = tested on: OVCAR-4 ovarian
[54] = tested on: ACHN renal
[55] = tested on: HCT-116 colon
[56] = tested on: MCF7 breast

## C#C[C@]1(O)CC[C@H]2[C@@H]3CC=C4c5sc(Nc6ncccc6C)nc5CC[C@]4(C)[C@H]3CC[C@@]21C
[1]
  GI50: 335 nM
  TGI: 1310 nM
[2]
  GI50: 561 nM
  TGI: 2700 nM
[3]
  GI50: 150 nM
  TGI: 456 nM
[4]
  GI50: 1570 nM
  TGI: 2960 nM
[5]
  GI50: 454 nM
  TGI: 1910 nM
[6]
  GI50: 2560 nM
  TGI: 6820 nM
[7]
  GI50: 2310 nM
  TGI: 5990 nM
[8]
  GI50: 2110 nM
  TGI: 8520 nM
[9]
  GI50: 1660 nM
  TGI: 4550 nM
[10]
  GI50: 355 nM
  TGI: 1430 nM
[11]
  GI50: 1850 nM
  TGI: 4660 nM
[12]
  GI50: 1490 nM
  TGI: 3400 nM
[13]
  GI50: 2040 nM
  TGI: 5290 nM
[14]
  GI50: 1550 nM
  TGI: 3430 nM
[15]
  GI50: 753 nM
  TGI: 3340 nM
[16]
  GI50: 1010 nM
  TGI: 4460 nM
[17]
  GI50: 1340 nM
  TGI: 9530 nM
[18]
  GI50: 1830 nM
  TGI: 4390 nM
[19]
  GI50: 1350 nM
  TGI: 3310 nM
[20]
  GI50: 1860 nM
  TGI: 7300 nM
[21]
  GI50: 493 nM
  TGI: 2460 nM
[22]
  GI50: 1360 nM
  TGI: 3000 nM
[23]
  GI50: 1640 nM
  TGI: 4290 nM
[24]
  GI50: 2080 nM
  TGI: 6390 nM
[25]
  GI50: 2450 nM
  TGI: 8960 nM
[26]
  GI50: 568 nM
  TGI: 5440 nM
[27]
  GI50: 1780 nM
  TGI: 4850 nM
[28]
  GI50: 1880 nM
  TGI: 6580 nM
[29]
  GI50: 1270 nM
  TGI: 2860 nM
[30]
  GI50: 1350 nM
  TGI: 3280 nM
[31]
  GI50: 1170 nM
  TGI: 4120 nM
[32]
  GI50: 603 nM
  TGI: 8670 nM
[33]
  GI50: 1770 nM
  TGI: 6240 nM
[34]
  GI50: 2530 nM
  TGI: 6710 nM
[35]
  GI50: 2240 nM
  TGI: 7460 nM
[36]
  GI50: 1810 nM
  TGI: 6150 nM
[37]
  GI50: 2050 nM
  TGI: 12800 nM
[38]
  GI50: 1290 nM
  TGI: 3430 nM
[39]
  GI50: 1320 nM
  TGI: 2720 nM
[40]
  GI50: 1990 nM
  TGI: 13600 nM
[41]
  GI50: 424 nM
  TGI: 2300 nM
[42]
  GI50: 1230 nM
  TGI: 2820 nM
[43]
  GI50: 1280 nM
  TGI: 4350 nM
[44]
  GI50: 1830 nM
  TGI: 4160 nM
[45]
  GI50: 1600 nM
  TGI: 3990 nM
[46]
  GI50: 1400 nM
  TGI: 3760 nM
[47]
  GI50: 1530 nM
  TGI: 3100 nM
[48]
  GI50: 264 nM
  TGI: 681 nM
[49]
  GI50: 1650 nM
  TGI: 4390 nM
[50]
  GI50: 425 nM
  TGI: 1640 nM
[51]
  GI50: 246 nM
  TGI: 694 nM
[52]
  GI50: 1800 nM
  TGI: 3900 nM
[53]
  GI50: 1900 nM
  TGI: 11300 nM
[54]
  GI50: 1850 nM
  TGI: 10700 nM
[55]
  GI50: 1040 nM
  TGI: 2510 nM
[56]
  GI50: 1050 nM
  TGI: 3150 nM
